Data reported in US20160256452A1 (Develco Pharma Schweiz AG, priority 2015, published 2016).
Counter-ions that a name gives are not always drawn.

Tests used:
[1] = test system: loperamide-induced experimental constipation; test: Whole gut transit time (WGT), radio-opaque marker method, loperamide-induced experimental constipation; type: in vivo, human
Procedure: (§1) All subjects were in good health as confirmed by medical histories, physical examination, routine clinical-chemical and hematologic screenings and 12-lead ECG. Three female subjects took hormonal contraceptives regularly and one subject took 300 mg ibuprofen to treat headache 4 days before the administration of study medication. Three subjects were smokers of less than 10 cigarettes per day. 14 subjects drank alcohol occasionally. All were negative in the pre-study screenings for alcohol, drugs, hepatitis-B-virus (HBV) and hepatitis-C-virus (HCV) and human immunodeficiency virus (HIV). Before administration of the study medication, female subjects were screened to be not pregnant and to apply a safe method of contraception. […] All participants provided informed written consent before inclusion into the study.
Pharmacokinetics of methylnaltrexone and its effects on loperamid-induced experimental constipation were evaluated in a randomized, controlled, five-period, cross-over study with 7 days wash-out between the study periods. […] The time of methylnaltrexone administration was defined to be time zero. For control of intestinal transit times in absence of loperamide and methylnaltrexone, 200 ml of pure apple juice and a methylnaltrexone placebo capsule were given at the respective times (Control). […] Oro-cecal transit time (OCT) was assessed using the sulfasalazine/sulfapyridine method. For that, 500 mg immediate-release sulfasalazine (Azulfidine®, Pharmacia, Germany) were swallowed with 200 ml table water 2 h after administration of the respective methylnaltrexone study medication to avoid competitive interactions during absorption. The time of first appearance of sulfapyridine in serum was defined to be the OCT (cut-off: 100 μg/ml serum). Whole gut transit time (WGT) was evaluated using a radio-opaque marker method. For that, Colon Transit' capsules (Medical Instruments Corporation GmbH, Herford, Germany) were swallowed 24, 12 and 1 h before time zero using the 200 ml apple juice for loperamide dosing. Each capsule contains 10 radio-opaque markers of identical shape (e.g. triangles). A Colon Transit™ batch consists of capsules with markers of different shape (e.g. triangles, circles, rings etc.). […] Then, the number of radio-opaque markers with identical shape was counted in the stool portions after X-ray imaging (Philips Optimus, Philips Healthcare, Hamburg, Germany) using the Agfa PACS Workstation Impact-Version 5.2 (Agfa-Healthcare, Cologne, Germany). From the time of administration of the 3×10 radio-opaque markers (3 Colon Transit™ capsules) and the time of their appearance in different stool portions could be reliably concluded on WGT as described below. Colon transit time (CTT) was derived from the difference of WGT and OCT.
Intestinal transit times: Oro-cecal transit time (OCT) was defined as the time span between oral administration of sulfasalazine (500 mg immediate-release tablet) and the appearance of its metabolite sulfapyridine in serum (cut-off=100 μg/ml) which is generated in the cecum by bacterial azo-reduction. Whole-gut transit time (WGT) was assessed by counting the radio-opaque markers with different shapes (Colon Transit™) in the feces according to formula (1) : […]
with δ1-3 as derived by formula (2):
[formula] • δt =mouth to stool transit time of markers type 1, 2, 3 • xi=number of markers type 1, 2, 3 counted at time ti • n=total number of stools

[2] = test system: loperamide-induced experimental constipation; test: Colon transit time (CTT), difference of WGT and OCT, loperamide-induced experimental constipation; type: in vivo, human; conditions: for colon transit time after pre-treatment with loperamide: all 15 subjects
Procedure: (§2) Pharmacokinetics of methylnaltrexone and its effects on loperamid-induced experimental constipation were evaluated in a randomized, controlled, five-period, cross-over study with 7 days wash-out between the study periods. […] The time of methylnaltrexone administration was defined to be time zero. For control of intestinal transit times in absence of loperamide and methylnaltrexone, 200 ml of pure apple juice and a methylnaltrexone placebo capsule were given at the respective times (Control). […] Oro-cecal transit time (OCT) was assessed using the sulfasalazine/sulfapyridine method. For that, 500 mg immediate-release sulfasalazine (Azulfidine®, Pharmacia, Germany) were swallowed with 200 ml table water 2 h after administration of the respective methylnaltrexone study medication to avoid competitive interactions during absorption. The time of first appearance of sulfapyridine in serum was defined to be the OCT (cut-off: 100 μg/ml serum). Whole gut transit time (WGT) was evaluated using a radio-opaque marker method. For that, Colon Transit' capsules (Medical Instruments Corporation GmbH, Herford, Germany) were swallowed 24, 12 and 1 h before time zero using the 200 ml apple juice for loperamide dosing. Each capsule contains 10 radio-opaque markers of identical shape (e.g. triangles). A Colon Transit™ batch consists of capsules with markers of different shape (e.g. triangles, circles, rings etc.). Our subjects were willing and compliant for sampling stool in single portions immediately after feeling urge without suppressing defecation using tightly closable containers. Then, the number of radio-opaque markers with identical shape was counted in the stool portions after X-ray imaging (Philips Optimus, Philips Healthcare, Hamburg, Germany) using the Agfa PACS Workstation Impact-Version 5.2 (Agfa-Healthcare, Cologne, Germany). From the time of administration of the 3×10 radio-opaque markers (3 Colon Transit™ capsules) and the time of their appearance in different stool portions could be reliably concluded on WGT as described below. Colon transit time (CTT) was derived from the difference of WGT and OCT.
The CTT was evaluated from the difference of WGT and OCT.

[3] = test system: loperamide-induced experimental constipation; test: Oro-cecal transit time (OCT), sulfasalazine/sulfapyridine method, loperamide-induced experimental constipation; type: in vivo, human
Procedure: as §1, with “The clinical study was performed in 15 German white subjects (11 males, 4 females, age 20-34 years, body mass index 20.3-27.0 kg/ m^2). All subjects” for “All subjects”, “the study. The study was approved by the Independent Ethics Committee of the University Medicine Greifswald and by the German Federal Institute for Drugs and Medical Devices (BfArM) and was registered by EudraCT (2009-014357-32) and ClinicalTrials.gov (NCT01596777).” for “the study.”
as §2
For supervised pretreatment with loperamide and Colon Transit™ (mouth checking) and for providing stool samples, the subjects visited the study unit. […]

[4] = cited from earlier work
[5] = 12 LOP-responders, Control versus LOP
[6] = 12 LOP-responders, Control versus LOP, range
[7] = mean ± SD, 12 LOP-responders, loperamide 4 mg 24, 12, 1 h before and 12 h after placebo capsules

SMILES: CN(C)C(=O)C(CCN1CCC(O)(c2ccc(Cl)cc2)CC1)(c1ccccc1)c1ccccc1 [LOP, loperamide hydrochloride]
- WGT extended by (mean ± SD) [1, 5]: 37.8 ± 19.1 h
- WGT extended by (range) [1, 6]: 20.6 to 74.1 h
- WGT after pre-treatment with loperamide (mean ± SD) ([1]; all 15 subjects): 73.4 ± 19.9 h
- WGT elevation versus Control ([1]; all 15 subjects): about 1.8 fold
- WGT after pre-treatment with loperamide (range) ([1]; all 15 subjects, range): 45.9 to 114 h
- WGT [1, 7]: 77.3 ± 19.6 h
- prolongation of the CTT (mean ± SD) [2, 5]: 34.8 ± 18.3 h
- prolongation of the CTT (range) [2, 6]: 18.3 to 73.6 h
- colon transit time after pre-treatment with loperamide [2]: 66.0 ± 20.9 h
- colon transit time after pre-treatment with loperamide ([2]; range): 33.9 to 110 h
- CTT [2, 7]: 70.3 ± 19.4 h
- prolongation of the OCT (mean ± SD) [3, 5]: 3.08 ± 3.30 h
- prolongation of the OCT (range) [3, 6]: 0.50 to 10.5 h
- OCT after pre-treatment with loperamide (mean ± SD) ([3]; all 15 subjects): 7.4 ± 3.7 h
- OCT after pre-treatment with loperamide (range) ([3]; all 15 subjects, range): 4.0 to 14.0 h
- OCT [3, 7]: 7.00 ± 3.55 h

SMILES: C[N@+]1(CC2CC2)CC[C@]23c4c5ccc(O)c4O[C@H]2C(=O)CC[C@@]3(O)[C@H]1C5 [methylnaltrexone, N-methylnaltrexone bromide]
- time of peak concentrations ([4]; following subcutaneous administration): approximately 0.5 hours
- crossing of the human blood-brain barrier ([4]; in vivo): does not cross
- eliminated without being metabolised ([4]; in vivo): 85 % of the administered dose
- proportion that binds to plasma proteins ([4]; in vivo): 11-15%
- steady-state volume of distribution ([4]; in vivo): 1.1 L/kg
- terminal half-life ([4]; in vivo): about 8 hours
- Accumulation ([4]; intravenous administration every 6 hours): has not been observed
- excreted in urine ([4]; share of the dose): Approximately half of the dose
